In publication PMC12292628, “Inhibitory Effects of 3-(4-Hydroxy-3-methoxyphenyl) Propionic Acid on Amyloid β-Peptide Aggregation In Vitro” (Biomedicines, 2025):
pEC50: −log10 of the molar value.

Target: T1, Aβ42 (amyloid-β protein) (Homo sapiens, UniProt P05067)
T1 construct: gene APP; synthetic Aβ42 peptide, low-molecular-weight (LMW, monomeric) Aβ42
Experiment: ThT fluorescence aggregation assay with purified LMW Aβ[…] (no seeds); electron microscopy
Assay type: biochemical

T1 sequence (P05067 672-713 limits assumed): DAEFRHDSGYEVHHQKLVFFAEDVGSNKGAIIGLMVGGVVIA

pEC50: 2.20
Compound: COc1cc(CCC(=O)O)ccc1O [HMPA, 3-(4-Hydroxy-3-methoxyphenyl) propionic acid]
